Experimental data taken from the NIST ThermoML archive (doi:10.1016/j.jct.2013.12.008).
Numbers after ± are expanded uncertainties.

Conditions: 101.33 kPa, Liquid; for viscosity: Capillary tube (Ostwald / Ubbelohde) method; for mass density: Pycnometric method

SMILES	viscosity (298.15 K) [mPa·s]	mass density (298.15 K) [kg/m3]	viscosity (308.15 K) [mPa·s]	mass density (308.15 K) [kg/m3]	viscosity (318.15 K) [mPa·s]	mass density (318.15 K) [kg/m3]
COc1ccccc1 [anisole]	0.989 ± 0.04	988.9 ± 0.8	0.906 ± 0.037	979.5 ± 0.8	0.84 ± 0.034	970.5 ± 0.8
CCOc1ccccc1 [ethoxybenzene]	1.223 ± 0.05	960.2 ± 0.6	0.982 ± 0.04	953.4 ± 0.8	0.823 ± 0.034	942.5 ± 0.9
